Source: ChEMBL document CHEMBL1124625, “Flavones. 2. Synthesis and structure-activity relationship of flavodilol and its analogues, a novel class of antihypertensive agents with catecholamine depleting properties” (J Med Chem, 1989)

Columns and labels:
[1] = species on record: Cavia porcellus; test: Inhibition of the isoproterenol response at a dose of 1 x 10e -4M in guinea pig; slight inhibition was found; assay type: functional, organism-based
[2] = system: Rattus norvegicus; test: Systolic blood pressure (SBP) in anesthetized spontaneously hypertensive rats (SHR) before administration of 75 mg/kg dose perorally.; assay type: functional; design: unit: mmHg; details: route oral
[3] = system: Rattus norvegicus; test: Systolic blood pressure (SBP) in anesthetized spontaneously hypertensive rats(SHR) at 7.5 hours after administration of 35 mg/kg dose perorally; assay type: functional; details: route oral
[4] = system: Rattus norvegicus; test: Systolic blood pressure (SBP) in anesthetized spontaneously hypertensive rats(SHR) at 7.5 hours after administration of 75 mg/kg dose perorally; assay type: functional; details: route oral
[5] = system: Rattus norvegicus; test: Systolic blood pressure (SBP) in anesthetized spontaneously hypertensive rats(SHR) before administration of 35 mg/kg dose perorally; assay type: functional; design: unit not given here; details: route oral
[6] = target: Adrenergic receptor beta (Rattus norvegicus, UniProt P18090+P10608+P26255)
Description: Inhibition constant from beta adrenergic receptor binding assay

[7] = system: Rattus norvegicus; test: Systolic blood pressure (SBP) in anesthetized spontaneously hypertensive rats(SHR) at 7.5 hours after administration of 75 mg/kg dose perorally; NS is not statistically significant.
[8] = system: Rattus norvegicus; test: Systolic blood pressure (SBP) in anesthetized spontaneously hypertensive rats(SHR) at 7.5 hours after administration of 75 mg/kg dose perorally; NS is not statistically significant
[9] = system: Rattus norvegicus; test: % decrease in adrenal epinephrine in anesthetized spontaneously hypertensive rats(SHR) at 24 hours after administration of 150 mg/kg dose perorally; assay type: functional; details: route oral
[10] = system: Rattus norvegicus; test: % decrease in systolic blood pressure (SBP) in anesthetized spontaneously hypertensive rats(SHR) after administration of 150 mg/kg dose perorally; details: route oral
[11] = system: Rattus norvegicus; test: % decrease in brain norepinephrine in anesthetized spontaneously hypertensive rats(SHR) at 24 hours after administration of 150 mg/kg dose perorally; details: route oral
[12] = system: Rattus norvegicus; test: % decrease in heart norepinephrine in anesthetized spontaneously hypertensive rats(SHR) at 24 hours after administration of 150 mg/kg dose perorally; assay type: functional; details: route oral
[13] = system: Rattus norvegicus; test: Systolic blood pressure (SBP) in anesthetized spontaneously hypertensive rats(SHR) before administration of 17 mg/kg dose perorally; assay type: functional; details: route oral
[14] = species on record: Cavia porcellus; test: Inhibition of the isoproterenol response at a dose of 1 x 10e -4M in guinea pig; slight inhibition was found.; assay type: functional, organism-based
[15] = system: Rattus norvegicus; test: Systolic blood pressure (SBP) in anesthetized spontaneously hypertensive rats(SHR) at 7.5 hours after administration of 17 mg/kg dose perorally; assay type: functional; details: route oral

**Q.** With `Cc1c(-c2ccccc2)oc2cc(OCC(O)CNC(C)C)ccc2c1=O` (stereo not given) as the compound, how does the Activity [1] read?
**A.** slight inhibition was found

**Q.** What about the Systolic blood pressure [2] of the same compound?
**A.** 208

**Q.** And the “Decrease in Systolic blood pressure” value [3]?
**A.** 10%

**Q.** And the “Decrease in Systolic blood pressure” value [4]?
**A.** 27%

**Q.** What about the Systolic blood pressure [5] of the same compound?
**A.** 206

**Q.** What does the source list for `CCNCC(O)COc1ccc2c(=O)cc(-c3ccccc3)oc2c1` (stereo not given)?
**A.** Decrease in Systolic blood pressure [3]: 16%; Ki [6]: 7500 nM; Systolic blood pressure [5]: 186

**Q.** Which results are given for `COc1ccc(CCNCC(O)COc2ccc3c(=O)cc(-c4ccccc4)oc3c2)cc1OC` (stereo not given)?
**A.** Systolic blood pressure [2]: 204; Decrease in Systolic blood pressure [7]: Not significant

**Q.** For `NCC(O)COc1ccc2c(=O)cc(-c3ccccc3)oc2c1` (stereo not given), which Systolic blood pressure [2] is on record?
**A.** 187

**Q.** And the “Decrease in Systolic blood pressure” value [8]?
**A.** Not significant

**Q.** With `CC(C)NCC(O)COc1ccc2c(=O)c(Cc3ccccc3)c(-c3ccccc3)oc2c1` (stereo not given) as the compound, how does the Systolic blood pressure [2] read?
**A.** 200

**Q.** What about the “Decrease in Systolic blood pressure” value [8] of the same compound?
**A.** Not significant

**Q.** Which Systolic blood pressure [2] does the source give for `O=c1cc(-c2ccccc2)oc2cc(O)ccc12` [7-HYDROXYFLAVONE] here?
**A.** 217

**Q.** Which results are given for `CC(C)NCC(O)COc1ccc2c(c1)OC(c1ccccc1)CC2=O` (stereo not given)?
**A.** Systolic blood pressure [2]: 198; Decrease in Systolic blood pressure [8]: Not significant

**Q.** Which Systolic blood pressure [2] does the source give for `CCCNCC(COc1ccc2c(=O)cc(-c3ccccc3)oc2c1)OC(=O)c1ccccc1` (stereo not given) here?
**A.** 187

**Q.** What about the “Decrease in Systolic blood pressure” value [4] of the same compound?
**A.** 22.5%

**Q.** For `CC(C)N(Cc1ccccc1)CC(O)COc1ccc2c(=O)cc(-c3ccccc3)oc2c1` (stereo not given), which Systolic blood pressure [2] is on record?
**A.** 200

**Q.** What about the “Decrease in Systolic blood pressure” value [7] of the same compound?
**A.** Not significant

**Q.** What does the source list for `CCCNCC(O)COc1ccc2c(=O)c(Cc3ccccc3)c(-c3ccccc3)oc2c1` (stereo not given)?
**A.** Systolic blood pressure [2]: 198; Decrease in Systolic blood pressure [4]: 14%

**Q.** For `CCCCNCC(O)COc1ccc2c(=O)cc(-c3ccccc3)oc2c1` (stereo not given), which “Decrease in Systolic blood pressure” value [3] is on record?
**A.** 26%

**Q.** And the Systolic blood pressure [5]?
**A.** 202

**Q.** `O=c1cc(-c2ccccc2)oc2cc(OCC(O)CNCC(O)COc3ccccc3)ccc12` (stereo not given) was tested. Which Systolic blood pressure [2] did it give?
**A.** 198

**Q.** What about the “Decrease in Systolic blood pressure” value [8] of the same compound?
**A.** Not significant

**Q.** Which results are given for `CC(C)NCC(O)COc1ccc2oc(-c3ccccc3)cc(=O)c2c1` (stereo not given)?
**A.** Activity [1]: Weak activity; Systolic blood pressure [2]: 199; Decrease in Systolic blood pressure [4]: 12%; Ki [6]: 2200 nM

**Q.** Which Systolic blood pressure [2] does the source give for `O=c1cc(-c2ccccc2)oc2cc(OCC(O)CNC3CCS(=O)(=O)C3)ccc12` (stereo not given) here?
**A.** 196

**Q.** What about the “Decrease in Systolic blood pressure” value [8] of the same compound?
**A.** Not significant

**Q.** With `CC(C)[N+](C)(C)CC(O)COc1ccc2c(=O)cc(-c3ccccc3)oc2c1.[I-]` (stereo not given) as the compound, how does the Systolic blood pressure [2] read?
**A.** 200

**Q.** What about the “Decrease in Systolic blood pressure” value [8] of the same compound?
**A.** Not significant

**Q.** What does the source list for `CC(C)NCC(O)COc1ccc2c(=O)c(-c3ccccc3)coc2c1` (stereo not given)?
**A.** Decrease [9]: 100%; % decrease SBP [10]: 34%; Decrease [11]: 37%; Decrease [12]: 100%

**Q.** Which results are given for `O=c1cc(-c2ccccc2)oc2cc(OCC(O)CNC3CC3)ccc12` (stereo not given)?
**A.** Systolic blood pressure [2]: 196; Decrease in Systolic blood pressure [3]: 31%; Decrease in Systolic blood pressure [4]: 32%; Ki [6]: 1500 nM; Systolic blood pressure [13]: 197; Activity [14]: Weak activity; Systolic blood pressure [5]: 198; Decrease in Systolic blood pressure [15]: 21%

**Q.** What does the source list for `O=c1cc(-c2ccccc2)oc2cc(OCC(O)CNCc3ccccc3)ccc12` (stereo not given)?
**A.** Systolic blood pressure [2]: 223; Decrease in Systolic blood pressure [7]: Not significant

**Q.** For `O=c1cc(-c2ccccc2)oc2cc(OCC3CO3)ccc12` (stereo not given), which Systolic blood pressure [2] is on record?
**A.** 120
